Data: US20060058320A1, “[1,2,4] Triazolo[1,5-c]pyrimidine derivatives” (KYOWA HAKKO KOGYO CO., LTD., priority 2002, published 2006)
Counter-ions that a name gives are not always drawn. Like-named read-outs stand apart in the source and are kept apart here.

How the values were obtained:
adenosine A2A receptor = target: T1, adenosine A2A receptor (Rattus norvegicus, UniProt P30543); assay: Adenosine A2A receptor binding test (3H-CGS 21680 binding); details: for inhibition at 0.1 µM: read-out: A2A Receptor inhibition rate (%) at 10^−7 mol/L
T1 construct: from tissue; host or cells: rat corpus striatum membrane preparation
T1 sequence (P30543 whole entry): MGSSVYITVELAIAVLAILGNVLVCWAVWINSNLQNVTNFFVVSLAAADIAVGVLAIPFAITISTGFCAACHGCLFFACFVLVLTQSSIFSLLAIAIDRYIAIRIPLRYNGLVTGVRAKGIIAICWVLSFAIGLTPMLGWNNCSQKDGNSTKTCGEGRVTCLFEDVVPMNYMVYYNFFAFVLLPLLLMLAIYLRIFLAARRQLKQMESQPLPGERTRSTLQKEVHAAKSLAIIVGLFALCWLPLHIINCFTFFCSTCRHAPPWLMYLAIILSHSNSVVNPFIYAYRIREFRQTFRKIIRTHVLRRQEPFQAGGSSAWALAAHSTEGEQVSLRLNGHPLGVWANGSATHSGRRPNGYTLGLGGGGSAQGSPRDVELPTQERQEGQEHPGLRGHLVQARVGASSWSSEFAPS
Procedure: The test was carried out according to the method of Bruns et al. [Molecular Pharmacology, vol. 29, p.
Rat corpus striatum was suspended in an ice-cold 50 mmol/L tris(hydroxymethyl)aminomethane hydrochloride (referred to as “Tris HCl” hereinafter) buffer (pH 7.7) using a Polytron homogenizer (produced by Kinematica Co.). The suspension was centrifuged (50,000×g, 10 minutes), and the resulting precipitate was again suspended in the same amount of a 50 mmol/L Tris HCl buffer, followed by centrifugation under the same conditions. The resulting finalprecipitate was again suspended in a 50 mmol/L-Tris HCl buffer [containing 10 mmol/L of magnesium chloride and 0.02 unit/mg tissue of adenosine deaminase (produced by Sigma Co.)] so that the tissue concentration was 5 mg (wet weight)/mL.
The radioactivity on the filter was determined with a liquid scintillation counter (produced by Packard Instrument Co.).
In the equation, X represents Amount of binding in the presence of a medicament, Y represents Amount of nonspecific binding, and Z represents Amount of total binding.

[1] = tested on: CGS 21680-induced catalepsy; assay: Activity on CGS 21680-induced catalepsy; format: in vivo, mice; details: for inhibition in vivo at 10 mg/kg: Mus musculus, po, read-out: Remission ratio (%); for Total score: total catalepsy score of 10 mice (maximum 50 points; 40 points or less = positive), one hour after administration; for Number of animals showing remission: cases with catalepsy score of 4 points or less in 10 cases
Procedure: Parkinson's disease is a motor disorder based on degeneration and cell death of the nigrostriatal dopaminergic neurons. When CGS 21680 (adenosine A2A receptor agonist) is administered into the intracerebral ventricle, the inhibitory synaptic transmission of GABA in the medium sized spiny neurons in the corpus striatum is inhibited directly via the adenosine A2A receptor [Journal of Neuroscience, vol. 16, p. 605 (1996)]. Accordingly, it is concidered that the adenosine A2A receptor agonists positively regulate the output of the GABAergic neurons from the corpus striatum to the globus pallidus lateralis, and, as a result, catalepsy is induced by the administration of CGS 21680.
The test was carried out using ten 5-week age male ddY mice (22-25 g in body weight, Japan SLC) per group. CGS 21680 (produced by RBI Co) was dissolved in physiological saline (produced by Otsuka Pharmaceutical Co., Ltd.), and 10 μg/20 μL of the solution was injected into mouse intracerebral ventricle. Each test compound was used by suspending it in distilled water containing 0.3% of polyoxylene (20) sorbitan monooleate (referred to as “Tween 80” hereinafter) (produced by Otsuka Pharmaceutical Co., Ltd.). The suspension containing each test compound or a solution containing no test Compound (distilled water containing 0.3% of Tween 80; used as a control) was orally administered (0.1 mL per 10 g of mouse body weight) 30 minutes before the injection of CGS 21680 into the intracerebral ventricle. One hour after the administration of the each test compound, only forelimbs or only hindlimbs of each mouse were laid on a vertically arranged stand made of acryl and having a size of 4.5 cm in height and 1.0 cm in width to measure catalepsy symptoms. All of the test compounds were administered orally in a dose of 10 mg/kg.
The criteria of the catalepsy score are shown below.
The effect was decided by a total catalepsy score of 10 mice in one group (the maximum score: 50 points). When the total score was 40 points or less, the activity of the compounds was decided positive. The number of the animals showing remission of catalepsy was expressed by the number of cases showing a catalepsy score of 4 points or less in 10 cases. The catalepsy remission ratio was expressed as the percentage of the total score in the test compound-administered group to the total score in the control group.

[2] = test compound 10^−7 mol/L, 3H-CGS 21680 binding, rat corpus striatum
[3] = from total score of test group and control group, 10 mg/kg orally

SMILES | inhibition at 0.1 µM (adenosine A2A receptor; [2]) [%] | melting point | inhibition in vivo at 10 mg/kg [1, 3] [%] | Total score ([1]; 10 mg/kg orally) | other results
Nc1nc(-c2ccccc2)cc2nc(-c3ccco3)nn12 [Compound 1, 5-Amino-2-(2-furyl)-7-phenyl[1,2,4]triazolo[1,5-c]pyrimidine] | 65 | 218.5 to 219 °C |  |  | 
Nc1nc(-c2ccc(CNCCc3ccccn3)cc2)cc2nc(-c3ccco3)nn12 [Compound 11, 5-Amino-2-(2-furyl)-7-{4-[2-(2-pyridyl)ethylaminomethyl]-phenyl}[1,2,4]triazolo[1,5-c]pyrimidine] | 53 | 159.8 to 160.5 °C |  |  | 
CC(=O)c1cc2nc(-c3ccco3)nn2c(N)n1 [Compound 38, 7-Acetyl-5-amino-2-(2-furyl)[1,2,4]triazolo[1,5-c]pyrimidine] | 84 | 221.2 to 221.5 °C |  |  | 
Nc1nc(C(=O)c2ccccc2)cc2nc(-c3ccco3)nn12 [Compound 39, 5-Amino-7-benzoyl 2-(2-furyl)[1,2,4]triazolo[1,5-c]-pyrimidine] | 66 | 229.2 to 229.7 °C |  |  | 
Nc1nc(C(=O)c2ccc(F)cc2)cc2nc(-c3ccco3)nn12 [Compound 40, 5-Amino-7-(4-fluorobenzoyl)-2-(2-furyl)[1,2,4]triazolo-[1,5-c]pyrimidine] | 58 |  | 94 | 3 | 
Nc1nc(C=O)cc2nc(-c3ccco3)nn12 [Compound 41, 5-Amino-7-formyl-2-(2-furyl)[1,2,4]triazolo[1,5-c]pyrimidine] | 54 | 270 °C (dec.) |  |  | 
COCCN1CCN(Cc2cc3nc(-c4ccco4)nn3c(N)n2)CC1 [Compound 49, 5-Amino-2-(2-furyl)-7-[4-(2-methoxyethyl)piperazin-1-yl-methyl][1,2,4]triazolo[1,5-c]pyrimidine dihydrochloride] | 89 |  |  | 4 | inhibition in vivo at 10 mg/kg [1]: 92%
Nc1nc(-c2cccs2)cc2nc(-c3ccco3)nn12 [Compound 51, 5-Amino-2-(2-furyl)-7-(2-thienyl)[1,2,4]triazolo[1,5-c]-pyrimidine] |  | 232.2 to 232.3 °C |  |  | inhibition at 0.1 µM (adenosine A2A receptor): 68%
Nc1nc(-c2cc3nc(-c4ccco4)nn3c(N)n2)cs1 [Compound 58, 5-Amino-7-(2-aminothiazol-4-yl)-2-(2-furyl)-[1,2,4]triazolo-[1,5-c]pyrimidine] | 70 |  | 80 | 10 | 
CCCCc1cc2nc(-c3ccco3)nn2c(N)n1 [Compound 64, 5-Amino-7-butyl-2-(2-furyl)[1,2,4]triazolo[1,5-c]pyrimidine] | 81 | 155 to 155.3 °C |  |  | 
Nc1nc(CCc2ccccc2)cc2nc(-c3ccco3)nn12 [Compound 66, 5-Amino-2-(2-furyl)-7-(2-phenylethyl)[1,2,4]triazolo[1,5-c]-pyrimidine] | 82 | 205 to 205.1 °C |  |  | 
Nc1nc(C#CC2(O)CCCC2)cc2nc(-c3ccco3)nn12 [Compound 69, 5-Amino-2-(2-furyl)-7-[2-(1-hydroxycyclopentyl)ethynyl][1,2,4]triazolo[1,5-c]pyrimidine] | 78 |  | 96 | 2 | 
COCCN1CC=C(c2cc3nc(-c4ccco4)nn3c(N)n2)CC1 [Compound 73, 5-Amino-2-(2-furyl)-7-[1-(2-methoxyethyl)-1,2,3,6-tetra-hydropyridin-4-yl][1,2,4]triazolo[1,5-c]pyrimidine] |  |  |  | 6 | inhibition in vivo at 10 mg/kg [1]: 88%; inhibition at 0.1 µM (adenosine A2A receptor): 98%
CN(Cc1ccc2c(c1)OCO2)C(=O)c1cc2nc(-c3ccco3)nn2c(N)n1 [Compound 107, 5-Amino-2-(2-furyl)[1,2,4]triazolo[1,5-c]pyrimidine-7-carboxylic acid [N-(1,3-benzodioxol-5-ylmethyl)-N-methyl]amide monohydrochloride] | 71 |  | 90 | 5 | 
COc1ccc(CN(C)C(=O)c2cc3nc(-c4ccco4)nn3c(N)n2)cc1 [Compound 108, 5-Amino-2-(2-furyl)[1,2,4]triazolo[1,5-c]pyrimidine-7-caroboxylic acid [N-(4-methoxybenzyl)-N-methyl]amide monohydrochloride] | 65 |  | 96 | 2 | 
CN(Cc1ccnc2ccccc12)C(=O)c1cc2nc(-c3ccco3)nn2c(N)n1 [Compound 113, 5-Amino-2-(2-furyl)[1,2,4]triazolo[1,5-c]pyrimidine-7-carboxylic acid [N-methyl-N-(4-quinolylmethyl)]amide] | 66 |  | 76 | 12 | 
CC(C)N(Cc1ccn(C)c1)C(=O)c1cc2nc(-c3ccco3)nn2c(N)n1 [Compound 116, 5-Amino-2-(2-furyl)[1,2,4]triazolo[1,5-c]pyrimidine-7-carboxylic acid [N-isopropyl-N-(1-methylpyrrol-3-ylmethyl)]amide] |  |  |  | 9 | Number of animals showing remission ([1]; 10 mg/kg orally): 9; Remission ratio (%) [1, 3]: 82%; A2A Receptor inhibition rate (%) at 10^−7 mol/L (adenosine A2A receptor; [2]): 62%
CN(Cc1ccccc1Cl)C(=O)c1cc2nc(-c3ccco3)nn2c(N)n1 [Compound 122, 5-Amino-2-(2-furyl)[1,2,4]triazolo[1,5-c]pyrimidine-7-carboxylic acid [N-(2-chlorobenzyl)-N-methyl]amide monohydrochloride] | 74 |  | 80 | 10 | 
COc1ccc(CN(C)C(=O)c2cc3nc(-c4ccco4)nn3c(N)n2)cn1 [Compound 131, 5-Amino-2-(2-furyl)[1,2,4]triazolo[1,5-c]pyrimidine-7-carboxylic acid [N-methyl-N-(6-methoxypyridin-3-ylmethyl)]-amide] | 51 |  | 88 | 6 | 
CC1CCN(C(=O)c2cc3nc(-c4ccco4)nn3c(N)n2)CC1 [Compound 143, 5-Amino-2-(2-furyl)[1,2,4]triazolo[1,5-c]pyrimidin-7-yl 4-methylpiperidino ketone] | 70 |  | 90 | 5 | 
CC1CCCN(C(=O)c2cc3nc(-c4ccco4)nn3c(N)n2)C1 (stereo not drawn) [Compound 145, 5-Amino-2-(2-furyl)[1,2,4]triazolo[1,5-c]pyrimidin-7-yl 3-methylpiperidino ketone] |  |  |  |  | inhibition at 0.1 µM (adenosine A2A receptor): 60%
Nc1nc(C(=O)N2CCCC2)cc2nc(-c3ccco3)nn12 [Compound 148, 5-Amino-2-(2-furyl)[1,2,4]triazolo[1,5-c]pyrimidin-7-yl pyrrolidinyl ketone] |  |  |  |  | A2A Receptor inhibition rate (%) at 10^−7 mol/L (adenosine A2A receptor; [2]): 75%
Nc1nc(C(=O)N2CCC3CCCCC3C2)cc2nc(-c3ccco3)nn12 (stereo not drawn) [Compound 151, 5-Amino-2-(2-furyl)[1,2,4]triazolo[1,5-c]pyrimidin-7-yl cis-decahydroisoquinolyl ketone] |  |  |  | 12 | Number of animals showing remission ([1]; 10 mg/kg orally): 8; Remission ratio (%) [1, 3]: 74%; A2A Receptor inhibition rate (%) at 10^−7 mol/L (adenosine A2A receptor; [2]): 71%
Nc1nc(C(=O)N2CCCCCC2)cc2nc(-c3ccco3)nn12 [Compound 154, 5-Amino-2-(2-furyl)[1,2,4]triazolo[1,5-c]pyrimidin-7-yl perhydroazepinyl ketone] |  |  |  | 16 | Number of animals showing remission ([1]; 10 mg/kg orally): 7; Remission ratio (%) [1, 3]: 66%; A2A Receptor inhibition rate (%) at 10^−7 mol/L (adenosine A2A receptor; [2]): 56%
